Measured values: patent publication US20250333377A1, “SOLID FORM OF NAPHTHYLAMINE MITOPHAGY INDUCER, AND PREPARATION METHOD THEREFOR, PHARMACEUTICAL COMPOSITION THEREOF AND USE THEREOF” (HANGZHOU PHECDAMED CO., LTD., priority 2023, published 2025)
Values after ≈ are worked out from the molar mass of the structure shown. Like-named read-outs stand apart in the source and are kept apart here.

Assays:
[1] = Solubility in FaSSIF, FeSSIF, water and SGF; assay type: physicochemical; conditions: for solubility at 0.5 h / solubility at 2 h / solubility at 24 h: thermodynamic from solid; for Solubility: SGF
Experimental: Aliquots of the samples are placed in the media FaSSIF buffer, FeSSIF buffer, water and SGF and tested for solubility at 0.5, 2 and 24 hours, respectively.

Mcl-1 protein = Mcl-1 protein (Homo sapiens, UniProt Q07820); test: Affinity test of recombinant Mcl-1 protein (SPR, Biacore); assay type: binding
From the text: The binding affinity of the sodium salt D crystal form of TJ01-013 to the Mcl-1 protein is studied by an in vitro Surface Plasmon Resonance (SPR) test, using a Biacore analyzer and measuring with a CM5 chip being coupled to the protein.

Rat pharmacokinetic test = assay type: in vivo, SD rats; conditions: for AUC(0-t): read-out: AUC0-24 h; for MRT inf: read-out: MRT0-∞; for MRT last: read-out: MRT0-24 h
Experimental: The plasma kinetic characteristics of the prototype drugs in healthy SD rats are analyzed after three doses of single gavage administration, a single dose of consecutive multiple gavage administration, and a single dose of intravenous injection administration of the sodium salt D crystal form of TJ01-013. These include the rate of absorption and degree of exposure, individual differences, dose relationship, rate of elimination, attainment of steady state, and possible accumulation of D crystal form of TJ01-013. After SD rats are administrated 10, 30, and 90 mg/kg of D crystal form of TJ01-013 by gavage in a single dose, 30 mg/kg of D crystal form of TJ01-013 by gavage in a single dose once per day for 7 consecutive days, and 10 mg/kg of D crystal form of TJ01-013 by intravenous injection in a single dose, the data of the concentrations of the prototype drugs in plasma at different time points in each animal are calculated by applying WinNonlin software fitting, and the mean pharmacokinetic parameters of each group of 6 animals (half of males and half of females) are summarized as shown in Table 12 below.

[2] = both sexes, SD, rat, plasma, po, 10 mg/kg, SD rats, single gavage, 10 mg/kg
[3] = both sexes, SD, rat, plasma, po, 30 mg/kg, SD rats, multiple gavage, 30 mg/kg once per day for 7 days
[4] = both sexes, SD, rat, plasma, po, 30 mg/kg, SD rats, single gavage, 30 mg/kg
[5] = both sexes, SD, rat, plasma, po, 90 mg/kg, SD rats, single gavage, 90 mg/kg
[6] = both sexes, Sprague-Dawley (SD), rat, plasma, SD rats, single intravenous injection, 10 mg/kg
[7] = both sexes, rat, plasma, po, SD rats, single gavage, 10 mg/kg
[8] = both sexes, rat, plasma, po, SD rats, single gavage, 30 mg/kg
[9] = both sexes, rat, plasma, po, SD rats, single gavage, 90 mg/kg

Mcl-1 protein, sequence (Q07820 whole entry, species assumed): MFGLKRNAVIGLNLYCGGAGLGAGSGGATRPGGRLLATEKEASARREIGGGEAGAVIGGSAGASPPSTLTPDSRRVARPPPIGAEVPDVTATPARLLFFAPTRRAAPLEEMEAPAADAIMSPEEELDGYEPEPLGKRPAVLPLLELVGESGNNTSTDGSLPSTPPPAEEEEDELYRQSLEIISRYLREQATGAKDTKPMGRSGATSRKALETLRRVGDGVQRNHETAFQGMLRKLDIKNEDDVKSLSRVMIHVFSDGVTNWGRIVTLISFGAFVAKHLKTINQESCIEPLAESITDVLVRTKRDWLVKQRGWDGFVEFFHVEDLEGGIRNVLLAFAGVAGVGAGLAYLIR

Q: What does the source list for `O=C(O)C[S+]([O-])c1cc(NS(=O)(=O)c2ccc(Br)cc2)c2ccccc2c1O` (centres unmarked) [Embodiment 4]?
A: solubility at 0.5 h ([1]; FaSSIF buffer, FaSSIF, 0.5 h): 3300 µg/mL (≈ 6.81 mM); solubility at 2 h ([1]; FaSSIF buffer, FaSSIF, 2 h): 3270 µg/mL (≈ 6.75 mM); solubility at 24 h ([1]; FaSSIF buffer, FaSSIF, 24 h): 2340 µg/mL (≈ 4.83 mM); solubility at 0.5 h ([1]; FeSSIF buffer, FeSSIF, 0.5 h): 1320 µg/mL (≈ 2.73 mM); solubility at 2 h ([1]; FeSSIF buffer, FeSSIF, 2 h): 1380 µg/mL (≈ 2.85 mM); solubility at 24 h ([1]; FeSSIF buffer, FeSSIF, 24 h): 1290 µg/mL (≈ 2.66 mM); Solubility (in words) ([1]; SGF (FIG. 41)): low solubility; Solubility ([1]; 0.5 h): Not detected; Solubility ([1]; 2 h): Not detected; Solubility ([1]; 24 h): Not detected; solubility at 0.5 h ([1]; Water, 0.5 h): 4100 µg/mL (≈ 8.46 mM); solubility at 2 h ([1]; Water, 2 h): 4190 µg/mL (≈ 8.65 mM); solubility at 24 h ([1]; Water, 24 h): 3870 µg/mL (≈ 7.99 mM); Solubility (in words) ([1]; water, FaSSIF, FeSSIF (FIG. 41)): high solubility; Kd (Mcl-1 protein; CM5 chip coupled to the protein, read-out: Affinity constant KD): 1120 nM; kon (Mcl-1 protein; CM5 chip, read-out: Binding constant ka): 1090 M⁻¹ s⁻¹; Remarks (kind of binding) (Mcl-1 protein; listed as TJ0113): specific; Remarks (kind of binding) (Mcl-1 protein; listed as sodium salt D crystal form of TJ01-013): can bind specifically to Mcl-1 protein; Dose relationship of exposure (Cmax, AUC0-24 h) (Rat pharmacokinetic test; SD rats, single gavage 10, 30, 90 mg/kg): the increase ratio is smaller than that of the dose; Pharmacokinetic characteristics (in words) (Rat pharmacokinetic test; SD rats, single gavage and intravenous administration): rapid absorption, low apparent volume of distribution and moderate elimination rate; Tissue distribution (in words) (Rat pharmacokinetic test; SD rats, single intravenous administration): low degree tissue distribution; Difference of plasma pharmacokinetic parameters between male and female (Rat pharmacokinetic test; SD rats, single intravenous, single and multiple gavage): no significant difference between male and female; AUC(0-t) (Rat pharmacokinetic test; both sexes, SD, rat, plasma, iv, 10 mg/kg, SD rats, single intravenous injection, 10 mg/kg): 112000 ± 11000 ng·h/mL; AUC(0-inf) (Rat pharmacokinetic test; both sexes, SD, rat, plasma, po, 10 mg/kg, SD rats, single gavage): 11100 ± 4320 ng·h/mL; AUC(0-t) (Rat pharmacokinetic test; [2]): 10700 ± 4440 ng·h/mL; MRT inf (Rat pharmacokinetic test; [2]): 4.82 ± 1.4 h; AUC(0-inf) (Rat pharmacokinetic test; [3]): 26600 ± 14200 ng·h/mL; AUC(0-t) (Rat pharmacokinetic test; [3]): 26200 ± 13700 ng·h/mL; MRT inf (Rat pharmacokinetic test; [3]): 3.86 ± 0.947 h; AUC(0-inf) (Rat pharmacokinetic test; both sexes, SD, rat, plasma, po, 30 mg/kg, SD rats, single gavage): 22800 ± 6860 ng·h/mL; AUC(0-t) (Rat pharmacokinetic test; [4]): 22100 ± 6660 ng·h/mL; MRT inf (Rat pharmacokinetic test; [4]): 5.11 ± 1.84 h; AUC(0-inf) (Rat pharmacokinetic test; both sexes, SD, rat, plasma, po, 90 mg/kg, SD rats, single gavage): 50100 ± 12200 ng·h/mL; AUC(0-t) (Rat pharmacokinetic test; [5]): 49900 ± 12200 ng·h/mL; MRT inf (Rat pharmacokinetic test; [5]): 3.94 ± 0.754 h; AUC(0-inf) (Rat pharmacokinetic test; both sexes, Sprague-Dawley (SD), rat, plasma, iv, 10 mg/kg, SD rats, single intravenous injection): 113000 ± 11000 ng·h/mL; MRT inf (Rat pharmacokinetic test; both sexes, Sprague-Dawley (SD), rat, plasma, iv, 10 mg/kg, SD rats, single intravenous injection, 10 mg/kg): 2.06 ± 0.192 h; Cmax at 7 days (Rat pharmacokinetic test; both sexes, Sprague-Dawley (SD), rat, plasma, po, SD rats, multiple gavage, 30 mg/kg once per day for 7 days): 5900 ± 3210 ng/mL; Tmax at 7 days (Rat pharmacokinetic test; both sexes, Sprague-Dawley (SD), rat, plasma, po, SD rats, multiple gavage, 30 mg/kg once per day for 7 days, median (min, max)): 1 h; Tmax (Rat pharmacokinetic test; both sexes, Sprague-Dawley (SD), rat, plasma, po, SD rats, single gavage, 10 mg/kg, median (min, max)): 0.5 h; Tmax (Rat pharmacokinetic test; both sexes, Sprague-Dawley (SD), rat, plasma, po, SD rats, single gavage, 30 mg/kg, median (min, max)): 0.5 h; Tmax (Rat pharmacokinetic test; both sexes, Sprague-Dawley (SD), rat, plasma, po, SD rats, single gavage, 90 mg/kg, median (min, max)): 1 h; clearance (Rat pharmacokinetic test; [6]): 1.49 mL/min/kg; half-life (Rat pharmacokinetic test; [6]): 2.26 ± 0.222 h; MRT last (Rat pharmacokinetic test; [6]): 2 ± 0.168 h; bioavailability (Rat pharmacokinetic test; both sexes, rat, plasma, oral, SD rats, single gavage 10 mg/kg versus intravenous 10 mg/kg, read-out: F (absolute bioavailability)): 9.55%; half-life at 7 days (Rat pharmacokinetic test; both sexes, rat, plasma, po, SD rats, multiple gavage, 30 mg/kg once per day for 7 days): 1.94 ± 0.898 h; Cmax (Rat pharmacokinetic test; [7]): 3130 ± 1660 ng/mL; half-life (Rat pharmacokinetic test; [7]): 3.86 ± 1.47 h; MRT last (Rat pharmacokinetic test; [7]): 3.84 ± 0.708 h; Cmax (Rat pharmacokinetic test; [8]): 4730 ± 1200 ng/mL; half-life (Rat pharmacokinetic test; [8]): 3.54 ± 2.55 h; MRT last (Rat pharmacokinetic test; [8]): 4.42 ± 0.923 h; Cmax (Rat pharmacokinetic test; [9]): 9980 ± 1850 ng/mL; half-life (Rat pharmacokinetic test; [9]): 2.08 ± 0.754 h; MRT last (Rat pharmacokinetic test; [9]): 3.89 ± 0.756 h; concentration at 5 min (Rat pharmacokinetic test; both sexes, rat, plasma, SD rats, single intravenous injection, 10 mg/kg, read-out: C5 min): 79900 ± 11600 ng/mL; Vd (Rat pharmacokinetic test; both sexes, rat, plasma, SD rats, single intravenous injection, 10 mg/kg, read-out: Vss): 0.184 L/kg; Accumulation (Rat pharmacokinetic test; rats, 30 mg/kg gavage once a day for 7 consecutive days): no obvious accumulation
